The experiment concerns the target DNA-PK (Homo sapiens, UniProt P78527). Kind of experiment: DNA-PK Inhibition Assay (standard radiometric kinase assay, 33P-ATP, peptide substrate). The experiment is classed as biochemical. The conditions noted are these: radiometric assay, approximately 6 nM DNA-PK, 100 μM ATP, 45 min; fit to competitive tight-binding inhibition; read-out: Ki for the inhibition of DNA-PK. The procedure:
Compounds were screened for their ability to inhibit DNA-PK kinase using a standard radiometric assay. Briefly, in this kinase assay the transfer of the terminal ^33P-phosphate in ^33P-ATP to a peptide substrate is interrogated. The assay was carried out in 384-well plates to a final volume of 50 μL per well containing approximately 6 nM DNA-PK, 50 mM HEPES (pH 7.5), 10 mM MgCl2, 25 mM NaCl, 0.01% BSA, 1 mM DTT, 10 μg/mL sheared double-stranded DNA (obtained from Sigma), 0.8 mg/mL DNA-PK peptide (Glu-Pro-Pro-Leu-Ser-Gln-Glu-Ala-Phe-Ala-Asp-Leu-Trp-Lys-Lys-Lys, obtained from American Peptide), and 100 μM ATP. Accordingly, compounds of the invention were dissolved in DMSO to make 10 mM initial stock solutions. Serial dilutions in DMSO were then made to obtain the final solutions for the assay. A 0.75 μL aliquot of DMSO or inhibitor in DMSO was added to each well, followed by the addition of ATP substrate solution containing ^33P-ATP (obtained from Perkin Elmer). The reaction was started by the addition of DNA-PK, peptide and ds-DNA. After 45 min, the reaction was quenched with 25 μL of 5% phosphoric acid. The reaction mixture was transferred to MultiScreen HTS 384-well PH plates (obtained from Millipore), allowed to bind for one hour, and washed three times with 1% phosphoric acid. Following the addition of 50 μL of Ultima Gold™ high efficiency scintillant (obtained from Perkin Elmer), the samples were counted in a Packard TopCount NXT Microplate Scintillation and Luminescence Counter (Packard BioScience). The Ki values were calculated using Microsoft Excel Solver macros to fit the data to the kinetic model for competitive tight-binding inhibition.

Each structure is given as a SMILES string. Bounds are passed on as bounds.

As a reminder, the Ki is a dissociation constant, usually derived from enzyme kinetics or from competition with a known ligand. Take `Cn1nc(N[C@H]2CC[C@@H](Oc3cc(N4CCOCC4)cc4nccnc34)CC2)c2cccnc21` [Compound 329]: the Ki is less than 100 nM.
In the case of `OC1(c2ccc(N[C@H]3CC[C@@H](Oc4cc(N5CCOCC5)cc5nccnc45)CC3)cn2)COC1` [Compound 468] it was less than 100 nM.
In the case of `OC1CCN(c2cc(N[C@H]3CC[C@@H](Oc4cc(N5CCOCC5)cc5nccnc45)CC3)ncn2)CC1` [Compound 492] it was less than 100 nM; in that of `CNc1nccc(N[C@H]2CC[C@@H](Oc3cc(N4CCOCC4)cc4nccnc34)CC2)n1` [Compound 454], less than 100 nM; in that of `CNC(=O)c1cc(C)nc(N[C@H]2CC[C@@H](Oc3cc(N4CCOCC4)cc4nccnc34)CC2)n1` [Compound 308], less than 100 nM.
In the case of `c1cnc2c(O[C@H]3CC[C@@H](Nc4ccc(OC5COC5)cn4)CC3)cc(N3CCOCC3)cc2n1` [Compound 638] it was less than 100 nM; in that of `Cc1cccc(N[C@H]2CC[C@@H](Oc3cc(N4CCOCC4)cc4nccnc34)CC2)n1` [Compound 623], less than 100 nM.
With `c1cc(N[C@H]2CC[C@@H](Oc3cc(N4CCOCC4)cc4nccnc34)CC2)nc(N2CCOCC2)c1` [Compound 590], the Ki is less than 100 nM.
Then `COCCOc1ccnc(N[C@H]2CC[C@@H](Oc3cc(N4CCOCC4)cc4nccnc34)CC2)n1` [Compound 558], with less than 100 nM.
Consider `CSc1nc(N[C@H]2CC[C@@H](Oc3cc(N4CCOCC4)cc4nccnc34)CC2)cs1` [Compound 628], for which the Ki was less than 100 nM.
In the case of `c1cc2ccoc2c(N[C@H]2CC[C@@H](Oc3cc(N4CCOCC4)cc4nccnc34)CC2)n1` [Compound 470], the Ki is less than 100 nM.
With `Clc1ccc(N[C@H]2CC[C@@H](Oc3cc(N4CCOCC4)cc4nccnc34)CC2)nn1` [Compound 40], the Ki is less than 100 nM.
Take `c1cc(N[C@H]2CC[C@@H](Oc3cc(N4CCOCC4)cc4nccnc34)CC2)nc(CN2CCOCC2)n1` [Compound 503]: the Ki is less than 100 nM.
In the case of `Cn1ccc2c(N[C@H]3CC[C@@H](Oc4cc(N5CCOCC5)cc5nccnc45)CC3)ncnc21` [Compound 384] it was less than 100 nM.
As to `CN1CCN(C(=O)N[C@H]2CC[C@@H](Oc3cc(N4CCOCC4)cc4nccnc34)CC2)CC1` [Compound 414], the Ki was less than 100 nM.
Consider `COc1c(Cl)ncnc1N[C@H]1CC[C@@H](Oc2cc(N3CCOCC3)cc3nccnc23)CC1` [Compound 402], for which the Ki is less than 100 nM.
Regarding `O=C(O)c1ccc(N[C@H]2CC[C@@H](Oc3cc(N4CCOCC4)cc4nccnc34)CC2)cn1` [Compound 393], the inhibition constant (Ki) was less than 100 nM.
In the case of `c1cnc2c(O[C@H]3CC[C@@H](Nc4ncnc5occc45)CC3)cc(N3CCOCC3)cc2n1` [Compound 518] it was less than 100 nM; in that of `COc1cncnc1N[C@H]1CC[C@@H](Oc2cc(N3CCOCC3)cc3nccnc23)CC1` [Compound 438], less than 100 nM; in that of `OCc1ccnc(N[C@H]2CC[C@@H](Oc3cc(N4CCOCC4)cc4nccnc34)CC2)c1` [Compound 615], less than 100 nM.
Then `c1cnc2c(O[C@H]3CC[C@@H](Nc4cncc5nccn45)CC3)cc(N3CCOCC3)cc2n1` [Compound 336], with less than 100 nM; and `c1ccc(N[C@H]2CC[C@@H](Oc3cc(N4CCOCC4)cc4nccnc34)CC2)cc1` [Compound 648], with less than 100 nM; and `CNC(=O)c1ccnc(N[C@H]2CC[C@@H](Oc3cc(C4=CCOCC4)cc4nccnc34)CC2)n1` [Compound 319], with less than 100 nM.
Then `Oc1ncc(F)c(N[C@H]2CC[C@@H](Oc3cc(N4CCOCC4)cc4nccnc34)CC2)n1` [Compound 395], with less than 100 nM.
As for `Cc1nccc(N[C@H]2C[C@@H](Oc3cc(N4CCOCC4)cc4nccnc34)C2)n1` [Compound 357], the Ki was less than 100 nM.
Regarding `CN(C)c1ncnc(N[C@H]2CC[C@@H](Oc3cc(N4CCOCC4)cc4nccnc34)CC2)c1F` [Compound 512], the Ki is less than 100 nM.
As for `O=C(NCC1CCCCC1)N[C@H]1CC[C@@H](Oc2cc(N3CCOCC3)cc3nccnc23)CC1` [Compound 410], the inhibitory constant (Ki) was less than 100 nM.
As to `FC(F)(F)c1cncc(N[C@H]2CC[C@@H](Oc3cc(N4CCOCC4)cc4nccnc34)CC2)c1` [Compound 429], the Ki was less than 100 nM.
On to `CN1CCN(C(=O)c2cnc(N[C@H]3CC[C@@H](Oc4cc(N5CCOCC5)cc5nccnc45)CC3)nc2)CC1` [Compound 337], for which the inhibition constant Ki was less than 100 nM.
With `c1cnc2c(O[C@H]3CC[C@@H](Nc4ncc5occc5n4)CC3)cc(N3CCOCC3)cc2n1` [Compound 563], the Ki was less than 100 nM.
In the case of `Cn1nc(N[C@H]2CC[C@@H](Oc3cc(N4CCOCC4)cc4nccnc34)CC2)ccc1=O` [Compound 578] it was less than 100 nM; in that of `COC(=O)[C@H](CC(C)C)NC(=O)N[C@H]1CC[C@@H](Oc2cc(N3CCOCC3)cc3nccnc23)CC1` [Compound 391], less than 100 nM; in that of `CNC(=O)c1ccnc(N[C@H]2CC[C@@H](Oc3cc(N4CCOCC4)cc4nccnc34)CC2)n1` [Compound 350], less than 100 nM.
As to `Fc1cc(N[C@H]2CC[C@@H](Oc3cc(N4CCOCC4)cc4nccnc34)CC2)ccn1` [Compound 642], the Ki was less than 100 nM.
For `c1cnc2c(O[C@H]3CC[C@@H](Nc4ncc(OCCCN5CCOCC5)cn4)CC3)cc(N3CCOCC3)cc2n1` [Compound 526], the Ki is less than 100 nM.
Regarding `c1nc2c(c(N[C@H]3CC[C@@H](Oc4cc(N5CCOCC5)cc5nccnc45)CC3)n1)CCN2` [Compound 370], the inhibition constant (Ki) is less than 100 nM.
In the case of `c1cnc2c(O[C@H]3CC[C@@H](Nc4ncc(-c5nnn[nH]5)cn4)CC3)cc(N3CCOCC3)cc2n1` [Compound 460], the Ki was less than 100 nM.
Then `c1cn2ccnc2c(N[C@H]2CC[C@@H](Oc3cc(N4CCOCC4)cc4nccnc34)CC2)n1` [Compound 372], with less than 100 nM; and `FC(F)(F)c1ncc(N[C@H]2CC[C@@H](Oc3cc(N4CCOCC4)cc4nccnc34)CC2)cn1` [Compound 428], with less than 100 nM; and `CNc1ncnc(N[C@H]2CC[C@@H](Oc3cc(N4CCOCC4)cc4nccnc34)CC2)c1F` [Compound 469], with less than 100 nM.
Then `Cc1ncc(-c2cc(N[C@H]3CC[C@@H](Oc4cc(N5CCOCC5)cc5nccnc45)CC3)ncn2)cn1` [Compound 426], with less than 100 nM.
In the case of `COC(c1ccc(N[C@H]2CC[C@@H](Oc3cc(N4CCOCC4)cc4nccnc34)CC2)nc1)C(F)(F)F` (some centres unmarked) [Compound 629] it was less than 100 nM; in that of `CC(C)(O)c1ncc(N[C@H]2CC[C@@H](Oc3cc(N4CCOCC4)cc4nccnc34)CC2)cn1` [Compound 341], less than 100 nM.
As to `CN1CCc2cnc(N[C@H]3CC[C@@H](Oc4cc(N5CCOCC5)cc5nccnc45)CC3)nc2C1` [Compound 556], the Ki was less than 100 nM.
In the case of `Cc1cnc(C)c(N[C@H]2CC[C@@H](Oc3cc(N4CCOCC4)cc4nccnc34)CC2)n1` [Compound 333] it was less than 100 nM; in that of `Clc1cc(N[C@H]2CC[C@@H](Oc3cc(N4CCOCC4)cc4nccnc34)CC2)nc(C2CC2)n1` [Compound 605], less than 100 nM.
For the compound `CN(C)Cc1ccnc(N[C@H]2CC[C@@H](Oc3cc(N4CCOCC4)cc4nccnc34)CC2)n1` [Compound 483], the Ki is less than 100 nM.
On to `Cc1cncc(N[C@H]2CC[C@@H](Oc3cc(N4CCOCC4)cc4nccnc34)CC2)c1` [Compound 465], for which the inhibition constant Ki is less than 100 nM.
In the case of `c1cnc2c(O[C@H]3CC[C@@H](Nc4ncc(CN5CCOCC5)cn4)CC3)cc(N3CCOCC3)cc2n1` [Compound 530] it was less than 100 nM; in that of `CNC(=O)c1cc(N[C@H]2CC[C@@H](Oc3cc(N4CCOCC4)cc4nccnc34)CC2)ncn1` [Compound 360], less than 100 nM; in that of `CN(C)c1ccc(N[C@H]2CC[C@@H](Oc3cc(N4CCOCC4)cc4nccnc34)CC2)nn1` [Compound 598], less than 100 nM.
Then `Cc1nccc(N[C@H]2CC[C@@H](Oc3cc(N4CC5CCC(C4)O5)cc4nccnc34)CC2)n1` [Compound 297], with less than 100 nM; and `OCc1cnc(N[C@H]2CC[C@@H](Oc3cc(N4CCOCC4)cc4nccnc34)CC2)cn1` [Compound 577], with less than 100 nM; and `c1nc(N[C@H]2CC[C@@H](Oc3cc(N4CCOCC4)cc4nccnc34)CC2)cc(C2CC2)n1` [Compound 650], with less than 100 nM.
Consider `CN1CCc2ncnc(N[C@H]3CC[C@@H](Oc4cc(N5CCOCC5)cc5nccnc45)CC3)c2C1` [Compound 398], for which the Ki is less than 100 nM.
Then `COc1cnc(N(C)C)nc1N[C@H]1CC[C@@H](Oc2cc(N3CCOCC3)cc3nccnc23)CC1` [Compound 386], with less than 100 nM.
Regarding `O=C(N[C@H]1CC[C@@H](Oc2cc(N3CCOCC3)cc3nccnc23)CC1)N1CCCC1` [Compound 415], the Ki is less than 100 nM.
In the case of `Clc1nc(N[C@H]2CC[C@@H](Oc3cc(N4CCOCC4)cc4nccnc34)CC2)nc2[nH]ccc12` [Compound 501] it was less than 100 nM; in that of `c1cnc2c(O[C@H]3CC[C@@H](Nc4ncc(CCN5CCOCC5)cn4)CC3)cc(N3CCOCC3)cc2n1` [Compound 434], less than 100 nM.

Values taken from US12251387B2, “Substituted quinoxalines and benzo[c][1,2,5]oxadiazoles as DNA-PK inhibitors” (Vertex Pharmaceuticals Incorporated, priority 2013, dated 2025).
